# From US9212391B2, “Method for determining DNA fragmentation in microorganisms” (Universidad Autonoma de Madrid, priority 2006, dated 2015)
# Entries after “also recorded” stand apart in the source; their conditions may differ. Like-named read-outs stand apart in the source and are kept apart here.
# How the values were obtained:
# [1] = system: Escherichia coli strain TG1 (sensitive strain); settings: for Vital Stain Empty Capsules, Sensitive Strain: 40 minutes
# [2] = system: Escherichia coli strain TG1 (sensitive strain); assay: DNA fragmentation / DNA damage level by the process of the invention (microgel, lysis, SYBR Gold); settings: for DNA damage (in words): 300 micrograms/ml
# [3] = system: Escherichia coli strain sensitive (TG1); assay: Growth inhibition MIC (commercial test), sensitive strain; assay type: cell-based; settings: read-out: minimum inhibitory concentration (MIC) of growth
# [4] = system: Escherichia coli strain resistant to ciprofloxacin; assay: Growth inhibition MIC (commercial test), resistant strain; assay type: cell-based; settings: maximum concentration of the commercial test
# [5] = system: Escherichia coli strain resistant to ciprofloxacin; settings: 40 minutes, LB medium
# [6] = 300 μg/ml, 40 min, exponential phase in LB medium
molecule,measurement,setting,value
"CC1(C)S[C@@H]2[C@H](NC(=O)[C@H](N)c3ccccc3)C(=O)N2[C@H]1C(=O)O [Ampicillin, ampicillin]",Vital Stain Empty Capsules,[1]; [6],5.00%
same,Vital Stain Empty Capsules,"[1]; 300 micrograms/ml, 20 minutes",0.67%
same,Vital Stain Empty Capsules,"[1]; 300 micrograms/ml, 24 hours",75.97%
same,DNA Fragmentation (percentage of bacteria with fragmented DNA),[2]; [6],4.20%
same,DNA damage (in words),[2]; 20 minutes,differences were not observed with respect to the control; also recorded: DNA fragments are not observed
same,DNA damage (in words),[2]; 24 hours,massive presence of punctiform degraded DNA fragments; also recorded: the bottom is covered with DNA fragments
"O=C(O)c1cn(C2CC2)c2cc(N3CCNCC3)c(F)cc2c1=O [Ciprofloxacin, ciprofloxacin]",MIC,[3],0.012 µg/mL
same,MIC,[4],> 32 µg/mL
same,"Vital Stain Empty Capsules, Resistant Strain",[5]; 0.50 μg/ml,0.00%
same,"Vital Stain Empty Capsules, Resistant Strain",[5]; 1.00 μg/ml,0.10%
same,"Vital Stain Empty Capsules, Resistant Strain",[5]; 2.50 μg/ml,0.10%
same,"Vital Stain Empty Capsules, Resistant Strain",[5]; 10.00 μg/ml,0.15%
same,"Vital Stain Empty Capsules, Sensitive Strain","[1]; 0.003 μg/ml, exponential growth in LB medium",0.70%
same,"Vital Stain Empty Capsules, Sensitive Strain","[1]; 0.006 μg/ml, exponential growth in LB medium",0.76%
same,"Vital Stain Empty Capsules, Sensitive Strain","[1]; 0.012 μg/ml, exponential growth in LB medium",1.06%
same,"Vital Stain Empty Capsules, Sensitive Strain","[1]; 0.100 μg/ml, exponential growth in LB medium",1.40%
same,"Vital Stain Empty Capsules, Sensitive Strain","[1]; 0.50 μg/ml, LB medium",0.05%
same,"Vital Stain Empty Capsules, Sensitive Strain","[1]; 1.00 μg/ml, LB medium",0.00%
same,"Vital Stain Empty Capsules, Sensitive Strain","[1]; 2.50 μg/ml, LB medium",0.15%
same,"Vital Stain Empty Capsules, Sensitive Strain","[1]; 10.00 μg/ml, LB medium",0.48%
same,Vital Stain Empty Capsules,"[1]; 25 μg/ml, 40 min",0.30%
same,minimum incubation time at which evident DNA damage was detected,[2]; 1 μg/ml,5 min
same,DNA Fragmentation (percentage of bacteria with fragmented DNA),"[2]; 25 μg/ml, 40 min",100.00%
same,DNA damage level,"[2]; 0.006 micrograms/ml, 40 minutes",intermediate between level 1 and 2
same,minimum time of incubation to detect a minimal effect at DNA level (incl. […] processing),[2]; 1 microgram/ml,6.5 min
same,DNA damage level,"[2]; 10 micrograms/ml for 40 minutes, immediately after the treatment (0 min after wash)",3-4
same,size of the bacterial capsules versus the other assayed times,"[2]; 10 micrograms/ml for 40 minutes, then 60 and 90 minutes in ciprofloxacin-free medium, image analysis",increases about double
same,time in antibiotic-free medium at which a statistically significant decrease of the fragment diffusion halo begins to be detected,"[2]; 10 micrograms/ml for 40 minutes, then washed, image analysis, p<0.05",15 min
"OO [H2O2, hydrogen peroxide]",Vital Stain Empty Capsules,"[1]; 10 mM, 10 min",0.30%
same,Vital Stain Permeable,"[1]; 10 mM, 10 min",5.00%
same,DNA Fragmentation (percentage of bacteria with fragmented DNA),"[2]; 10 mM, 10 min",100.00%
same,DNA fragmentation (in words),"[2]; 10 mM, 10 minutes",massive Escherichia coli DNA fragmentation
gentamicin,Vital Stain Empty Capsules,[1]; [6],0.50%
same,Vital Stain Permeable,[1]; [6],10.00%
same,DNA Fragmentation (percentage of bacteria with fragmented DNA),[2]; [6],3.70%
